PubChem BioAssay (NCI)
Where “and” joins values, the source holds several entries; their conditions need not be identical. Equal entries are not always repeated.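 Exposure lasted 48 hours, with cells grown in 96-well plates and compounds tested at five concentrations. At the GI50, growth is halved. TGI: total growth inhibition.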

Columns and labels:
Assay in all cases: NCI-60 cell line screen, 48 h
[1] = system: NCI-H226 lung
[2] = system: EKVX NSCLC
[3] = system: SF-295 CNS
[4] = system: SK-MEL-5 melanoma
[5] = system: NCI-H23 lung
[6] = system: SW-620 colon
[7] = system: RPMI-8226 leukemia
[8] = system: OVCAR-8 ovarian
[9] = system: NCI-H522 lung
[10] = system: UACC-257 melanoma

Row | SMILES | TGI [1] [µM] | TGI [2] | GI50 [3] [µM] | TGI [3] [µM] | GI50 [4] | TGI [4] | GI50 [5] | TGI [5] | GI50 [6] | TGI [6] | GI50 [7] | TGI [7] [µM] | TGI [8] | GI50 [9] | TGI [9] | GI50 [10] | TGI [10] | GI50 [1] [µM] | GI50 [2] [µM] | GI50 [8] [µM]
1 | NC(C/[N+]([O-])=N/O)C(=O)O (configuration not stated) | > 468 | > 100 µM and 371 µM | 6.24 | > 500 | 1.9 µM and 8.31 µM and 1.46 µM | > 42.7 µM and > 100 µM and 114 µM | 3.85 µM and 12.6 µM and 1.61 µM | > 100 µM and 154 µM | 9.22 µM and 19.7 µM and 15.1 µM | > 100 µM and 417 µM | > 43.8 µM and 46.5 µM and 18 µM | > 500 | > 100 µM and 459 µM | 8.03 µM and 33.6 µM | > 59.6 µM and 284 µM | 18 µM and 68.2 µM and 52.5 µM | > 100 µM and 456 µM | – | – | –
2 | N=Nc1c(OC(=O)Nc2ccccc2)[nH]c2ccccc12 | 37.9 | > 100 µM | – | 30.2 | – | 51.9 µM | – | 33.2 µM | – | > 100 µM | – | 32.1 | 33.9 µM | – | 36.6 µM | – | 92.2 µM | – | – | –
3 | CC(=O)OCCOCNC(=S)N/N=C/c1ccc2ccccc2n1 | > 100 | > 100 µM | – | > 100 | – | 60.8 µM | – | > 100 µM | – | > 100 µM | – | > 100 | > 100 µM | – | 62.7 µM | – | > 100 µM | – | – | –
4 | Cc1c(C(=O)CC(=O)C(=O)Nc2c(C(C)C)cccc2C(C)C)[n+](=O)c2ccccc2n1[O-] | 54.5 | 29 µM | – | 29.1 | – | 24.4 µM | – | 34 µM | – | 13.2 µM | – | 15.4 | 7.38 µM | – | 5.83 µM | – | 12.6 µM | – | – | –
5 | O=C1c2cccc3cc([N+](=O)[O-])cc(c23)C(=O)N1NC1=NCCN1 | > 100 | > 100 µM | – | > 100 | – | > 100 µM | – | > 100 µM | – | > 100 µM | – | > 100 | > 100 µM | – | > 100 µM | – | > 100 µM | – | – | –
6 | Oc1c(C(Nc2cccc3ccccc23)c2ccccc2)ccc2cccnc12 (configuration not stated) | 8.06 | 41.1 µM | 2.96 | > 100 | 2.1 µM | 5.99 µM | 4.04 µM | 27.5 µM | 3.73 µM | 24 µM | 2.36 µM | > 100 | 39.3 µM | 2.74 µM | 7.82 µM | 2.88 µM | 9.28 µM | 2.17 | 2.93 | 3.22
7 | CCNC(C)(C)C(SS)c1ccc(Br)cc1 (configuration not stated) | > 100 | > 100 µM | – | > 100 | – | > 100 µM | – | > 100 µM | – | 56.2 µM | – | 76.1 | > 100 µM | – | 35.1 µM | – | 90.8 µM | – | – | –
8 | CN(Cc1cnc(N)nc1N)c1ccc(C(=O)O)cc1 | > 100 | > 100 µM | > 100 | > 100 | > 100 µM | > 100 µM | > 100 µM | > 100 µM | > 100 µM | > 100 µM | > 100 µM | > 100 | > 100 µM | > 100 µM | > 100 µM | > 100 µM | > 100 µM | > 100 | > 100 | > 100
9 | O=C(c1ccccc1)C(c1ccccc1)C1(O)C(=O)Nc2ccccc21 (configuration not stated) | > 100 | > 100 µM | – | > 100 | – | > 100 µM | – | > 100 µM | – | > 100 µM | – | > 100 | > 100 µM | – | > 100 µM | – | > 100 µM | – | – | –
10 | COc1cc(/C=N/Nc2ncnc3c2cnn3C(C)C)ccc1O | > 25 | > 25 µM | 9.41 | > 25 | 8.1 µM | > 25 µM | 6.05 µM | > 25 µM | 8.41 µM | > 25 µM | 9.76 µM | > 17.8 | > 25 µM | 6.78 µM | > 25 µM | 14.9 µM | > 25 µM | 9.27 | 11.6 | 6.37
11 | NC1=NC(c2ccc(Cl)cc2)N(c2ccc(S(=O)(=O)Nc3ncccn3)cc2)C(N)=N1 (configuration not stated) | > 100 | > 100 µM | – | > 100 | – | > 100 µM | – | > 100 µM | – | > 100 µM | – | > 100 | > 100 µM | – | > 100 µM | – | > 100 µM | – | – | –
12 | [N-]=[N+]=Nc1ccc(CCN2CCN(c3cccc(C(F)(F)F)c3)CC2)cc1I | > 100 | > 100 µM | – | > 100 | – | > 100 µM | – | > 100 µM | – | > 100 µM | – | 69.4 | > 100 µM | – | > 100 µM | – | > 100 µM | – | – | –
